The record followed here is patent publication US20070202185A1, “Microencapsulated Delivery Vehicles Having Fugitive Layers” (KIMBERLY-CLARK WORLDWIDE, INC., priority 2005, published 2007).

The subject of the experiment is Methicillin-resistant Staphylococcus aureus. To be noted: 0.005% PHMB versus no PHMB. The protocol:
This Example utilized 1.5-milliliter tubes containing a 1-milliliter blend of phosphate-buffered saline (pH 7.2) and 5% (w/v) bovine serum albumin soil. The tubes were placed in electric heat blocks set for 22° C., 30° C., 40° C. and 50° C., respectively. The tubes remained in the electric heat blocks for approximately 10 minutes.
After 10 minutes, 0.005% (by weight) active polyhexamehtylene biguanide (PHMB) (commercially available as Cosmocil® CQ from Arch Biocides, Inc., United Kingdom) was added to two tubes at each temperature level. Duplicate tubes without PHMB at each temperature were also made.
The tubes were then vortexed and Methicillin-resistant Staphylococcus aureus (approximately 1×10^5 colony forming units (CFU)) was then added to each tube. All of the tubes were then placed back into the heat blocks at their respective temperatures.
Following a 10-minute contact time, 0.1 milliliters of each sample was transferred to 0.9 milliliters letheen broth to neutralize the PHMB activity. The letheen samples were then plated in duplicate on Tryptic Soy agar plates using a WASP2 spiral plater (commercially available from Don Whitley Scientific, Ltd., Yorkshire, United Kingdom). The plates were inverted and incubated at 37±2° C. for 48 hours.
After 48 hours, the plates were evaluated using a total plate count to determine the biocidal efficacy of each sample.

Where two headings read alike, the source gives them in different places.

polyhexamethylene biguanide [PHMB]: the “LOG10 Reduction” value runs as follows: (22° C.) 2.1; (30° C.) 2.8; (40° C.) 3.5; (50° C.) more than 3.5.
